Measured values reported in US20190298743A1, “TREATMENT OF PAIN” (Takeda Pharmaceutical Company Limited, priority 2016, published 2019).
pEC50: −log10 of the molar value.

Tests used:
[1] = Protease-evoked paw edema, hindpaw thickness; type: in vivo, mice; details: ipsilateral paw
Experimental: (§1) Immediately before experiments the mice were acclimatized to the experimental apparatus, room and investigator for 1-2 h on 2 successive days. Mechanical nociceptive responses were evaluated by paw withdrawal to stimulation of the plantar surface of the hind-paw with calibrated von Frey filaments. von Frey scores were measured in triplicate to establish a baseline for each animal on the day before experiments. Paw edema was estimated by measuring the thickness of the hindpaw using digital calipers before and after treatments. Mice were […] with 5% isoflurane for intraplantar injections. Dyngo4a (50 μM), PitStop2 (50 μM) or vehicle (0.2% DMSO in 0.9% NaCl) (all 10 μl) were injected into the left hindpaw. After 30 min, trypsin (10 nM), Cat-S (2.5 μM) or elastase (30 U) (all 10 μl) were injected into the same left hindpaw. von Frey scores (left and right paws) and paw thickness (left paw) were measured hourly for up to 4 h after protease injection. Investigators were blinded to the test agents.

PAR2 [2] = test: Whole population FRET with nuclear ERK sensor NucEKAR in HEK293 cells; type: cell-based
Experimental: (§2) Förster Resonance Energy Transfer (FRET) was used to characterise PAR2 mediated ERK within different subcellular compartments upon stimulation with different agonists. The assays were repeated after employing pharmacological and genetic approaches shown to abolish receptor internalisation to assess the role of internalisation in generating compartmentalised signals.
After achieving ˜50% confluency within 10 cm dishes HEK293 cells were transfected with 2-5 μg of PAR2 with N-terminal HA epitope tag (PAR2-HA) and 2-5 μg of desired FRET biosensor, using PEI as a transfection agent. 24 hours after transfection, cells were seeded into poly-D-lysine coated black 96 well isoplates. FRET was assessed 48 hours after cell plating, following overnight serum restriction. […] When used endocytic inhibitors were diluted in 1×HBSS+1% dimethyl sulfoxide (DMSO). Following the replacement of culture media cells were allowed to equilibrate at 37° C. for 30 minutes. FRET was then determined using a PHERAstar FS microplate reader (BMG LabTech, Offenburg, Germany), cells were sequentially excited at 430 nm with emissions being read at 550 nm and 490 nm. A 4 minute baseline was obtained before the addition of vehicle (1×HBSS+/−1% DMSO), protease or 1 μM PDBu (serving as a positive control). […] FRET ratios were then calculated and corrected to baseline and vehicle treatments in Microsoft Excel 2013.

PAR2 [3] = test: BRET proximity of PAR2 to KRas (plasma membrane) and Rab5a (endosomes) in HEK cells; type: cell-based; details: HEK cells
Experimental: (§3) The contribution of endocytosis of protease-activated receptor-2 (PAR2) was evaluated for generation of signals in subcellular compartments that mediate protease-evoked sensitization of nociceptors. Bioluminescence resonance energy transfer (BRET) was used to assess the proximity of PAR2 to resident proteins of the plasma membrane (KRas) and endosomes (Rab5a) in HEK cells. […] Förster resonance energy transfer (FRET) biosensors targeted to the plasma membrane, cytosol or nucleus were used to examine the capacity of proteases to generate signals in subcellular compartments of HEK cells and rat dorsal root ganglia neurons. […] Dynamin inhibitor Dyngo4a, Clathrin inhibitor Pitstop2 and dominant negative β-arrestin inhibited trypsin-evoked endocytosis of PAR2, and prevented trypsin-evoked activation of cytosolic cAMP and PKC and nuclear ERK. […] To examine the link between PAR2 endocytosis, compartmentalized signaling and nociceptor sensitization, perforated patch clamp recordings were made from mouse dorsal root ganglia neurons. […] The effects of proteases on excitability were blocked by the PAR2 antagonist GB88. Thus, canonical and biased proteases sensitize nociceptors by distinct mechanisms. For canonical agonists, PAR2 endocytosis generates compartmentalized signals subcellular compartments that underlie sustained excitability of nociceptive neurons. Inhibiting endosomal signaling of PAR2 may provide a novel method of treating protease-evoked pain.

PAR2 [4] = test: FRET biosensors for compartmentalised cAMP, PKC and ERK signals in HEK cells and rat dorsal root ganglia neurons; type: cell-based
Experimental: as §3

DRG neurons = test: Perforated patch-clamp excitability (rheobase) of isolated DRG neurons; type: cell-based, mice; details: 0 min and 30 min after washing
Experimental: To assess the effects of proteases on excitability of nociceptors, DRG neurons were preincubated with trypsin, cathepsin S, elastase or vehicle (control), washed, and rheobase and action potential discharge at a current of twice rheobase were measured at 0 min or 30 min after washing.
DRG (T9-T13) from C57BL/6 mice were digested by incubation in collagenase (1 mg/ml, Worthington Biochemical, Lakewood, N.J.) and dispase (4 mg/ml, Roche Life Science, Indianapolis, Ind.) for 10 min at 37° C., and were dispersed by trituration with a fire-polished Pasteur pipette. Cells were plated onto coverslips coated with laminin (0.017 mg/ml) and poly-D-lysine (2 mg/ml) in 24-well plates. Neurons were cultured in F12 medium (Cat N668, Lot RNBD5333, Sigma-Aldrich, St Louis, Mo. USA) containing 10% fetal calf serum, with penicillin and streptomycin and maintained at 37° C. in a humidified atmosphere of 95% air and 5% CO2 until retrieval (16 h) for electrophysiological studies.
Neuronal excitability was assessed by perforated patch-clamp recordings with amphotericin B (240 μg/ml) from small diameter neurons (<30 pF capacitance) in current clamp mode at room temperature. Only neurons with resting membrane potentials more negative than −40 mV were analyzed. Changes in excitability were quantified by measuring rheobase (minimum current to fire action potential) and numbers of action potentials discharged at twice rheobase. Recordings were made using Axopatch 200B amplifiers, digitized by Digidata 1322A and stored and processed using pClamp 10.1 software (Molecular Devices, Sunnyvale, Calif.). The recording chamber was continuously perfused with external solution at 2 ml/min. External solution was (mM): 140 NaCl, 5 KCl, 10 HEPES, 10 D-glucose, 1 MgCl2, 2 CaCl2; pH to 7.4 with 3 M NaOH. Pipette solution was (mM): 110 K-gluconate, 30 KCl, 10 HEPES, 1 MgCl2, 2 CaCl2; pH 7.25 with 1 M KOH.
DRG neurons were pre-incubated with vehicle (control) or proteases using conditions that we have reported to cause robust hyperexcitability: trypsin (50 nM, 10 min), elastase (10 U/ml, 390 nM, 30 min), Cat-S (500 nM, 60 min). Neurons were then washed and maintained in protease-free F12 medium. Neuronal excitability was assessed 0 or 30 min after washing. In some experiments, neurons were incubated with vehicle (0.3% DMSO), Dyngo4a (30 μM) or PitStop2 (15 μM) for 30 min before and during incubation with proteases.
Results are expressed as mean±SE. Two way ANOVA and post hoc Tukey's tests were used to analyze the data.

[5] = Protease-evoked mechanical hyperalgesia, von Frey paw withdrawal; type: in vivo, mice; details: ipsilateral paw
Experimental: as §1

PAR2 [6] = test: BRET receptor trafficking, PAR2-RLuc8 with plasma membrane marker RIT-venus in HEK293 cells; type: cell-based
Experimental: (§4) Bret studies of receptor trafficking were conducted to quantify PAR2 internalisation (RIT-venus) and trafficking to early endosomes (Rab5a-venus) upon stimulation with different agonists.
(§5) After achieving ˜50% confluency within 10 cm dishes HEK293 cells were transiently transfected with 1 μg PAR2-RLuc8 and 4 μg of either RIT-venus or Rab5a-venus using PEI as a transfection agent. 24 hours post transfection, cells were seeded into poly-D-lysine coated 96-well isoplates. […] When used endocytic inhibitors were diluted in 1×HBSS+1% dimethyl sulfoxide (DMSO). Following the replacement of culture media cells were allowed to equilibrate at 37° C. for 30 minutes before the addition of colenterazine H [5 μM]. After a further 5 minute incubation BRET was assessed using a LUMIstar Omega microplate reader (BMG LabTech, Offenburg, Germany), with luminescence being read at 535 nm and 475 nm. A 4 minute baseline was obtained before the addition of vehicle (1×HBSS+/−1% DMSO) or protease, measurements were then continued for a further 30 minutes. BRET ratios were calculated using LUMIstar MARS analysis software and then corrected to baseline and vehicle treatments in Microsoft Excel 2013.

PAR2 [7] = test: Whole population FRET with cytosolic ERK sensor CytoEKAR in HEK293 cells; type: cell-based
Experimental: as §2
After achieving ˜50% confluency within 10 cm dishes HEK293 cells were transfected with 2-5 μg of PAR2 with N-terminal HA epitope tag (PAR2-HA) and 2-5 μg of desired FRET biosensor, using PEI as a transfection agent. 24 hours after transfection, cells were seeded into poly-D-lysine coated black 96 well isoplates. FRET was assessed 48 hours after cell plating, following overnight serum restriction. […] When used endocytic inhibitors were diluted in 1×HBSS+1% dimethyl sulfoxide (DMSO). Following the replacement of culture media cells were allowed to equilibrate at 37° C. for 30 minutes. FRET was then determined using a PHERAstar FS microplate reader (BMG LabTech, Offenburg, Germany), cells were sequentially excited at 430 nm with emissions being read at 550 nm and 490 nm. A 4 minute baseline was obtained before the addition of vehicle (1×HBSS+/−1% DMSO), protease or 1 μM PDBu (serving as a positive control). Measurements were then continued every minute for a further 30 minutes. FRET ratios were then calculated and corrected to baseline and vehicle treatments in Microsoft Excel 2013.

PAR2 [8] = test: BRET receptor trafficking, PAR2-RLuc8 with early endosomal marker Rab5a-venus in HEK293 cells; type: cell-based
Experimental: as §4, §5

trypsin
Edema after intraplantar injection of protease [1]: edema of the ipsilateral paw that was maximal after 4 h | Ability of agonist to produce ERK signals within the nucleus (PAR2 [2]): able to produce ERK signals | PAR2 endocytosis induced by agonist (PAR2 [3]): increases BRET between PAR2 and Rab5a and decreases BRET between PAR2 and KRas | Signals generated by protease in subcellular compartments (PAR2 [4]): activated cAMP and protein kinase C (PKC) at the plasma membrane and in the cytosol, and extracellular signal regulate kinase (ERK) in the nucleus and cytosol | Effect of protease on excitability (rheobase) of DRG neurons (DRG neurons): immediate increase in excitability | Mechanical hyperalgesia after intraplantar injection of protease [5]: caused mechanical hyperalgesia of the ipsilateral paw that was sustained for at least 4 h | pEC50 (PAR2 [6]; RIT-venus, CRC from AUC data, read-out: EC50 of trypsin induced internalisation of PAR2, plasma membrane marker): ~8.55 | Change in BRET between PAR2 and plasma membrane marker upon agonist stimulation (PAR2 [6]; trypsin 10 nM): time dependent decrease in BRET | Ability of agonist to produce ERK signals within the cytoplasm (PAR2 [7]): able to produce ERK signals | pEC50 (PAR2 [8]; Rab5a-venus, CRC from AUC data, read-out: EC50 of trypsin induced internalisation of PAR2, early endosomal marker): ~8.55 | Change in BRET between PAR2 and early endosomal marker upon agonist stimulation (PAR2 [8]; trypsin 10 nM): increase in BRET
